Reference: patent US20260317304A1, “TEAD INHIBITORS AND METHODS OF USE” (Sporos BioDiscovery, Inc., priority 2022, published 2026)

Tests used:
MSTO-211H xenograft [1] = experiment: Mouse xenograft MSTO-211H tumors, study part 3; assay type: in vivo, BALB/c nude mice; conditions: PO
Description: (§1) This study evaluated the in vivo anti-tumor efficacy of test compounds in BALB/c nude mice for treatment of MSTO-211H xenograft of lung cancer.
• Species: Mus Musculus • Strain: BALB/c nude • Age: 6-8 weeks • Sex: female • Body weight: 18-22 g • Number of animals inoculated with tumor: 80 mice • Number of animals enrolled in the treatment: 36 mice • Number of unenrolled animals: 44 mice • Animal supplier: Beijing Vital River Biotechnology Experimental Animal Co. Ltd Certification number: 20170011010591
(§2) The MSTO-211H tumor cells were maintained in RPMI 1640 medium supplemented with 10% Fetal bovine serum and 1% Antibiotic-Antimycotic at 37° C. in an atmosphere of 5% CO2 in air. The tumor cells were routinely subcultured twice weekly by trypsin-EDTA. The cells growing in an exponential growth phase with 95% cell survival or above were harvested, and counted for tumor inoculation.
Each mouse was inoculated subcutaneously at the right flank with MSTO-211H tumor cells (5×10^6+50% matrigel/0.2 mL) for tumor development. Animals were marked with earrings with unique 6 significant figure number for identification. The treatments of part 1 were started on day 5 after cell inoculation when the average tumor volume reached 181 mm^3. The treatments of part 2 were started on day 16 after cell inoculation when the average tumor volume reached 254 mm^3. The treatments of part 3 were started on day 33 after cell inoculation when the average tumor volume reached 969 mm^3.
The major endpoint was to determine if the tumor growth could be delayed. Tumor volume was measured twice a week in two dimensions using a caliper, and the volume was expressed in mm^3 using the formula: V=0.5 a×b^2 where a and b are the long and short diameters of the tumor, respectively. The tumor size was then used for calculations of T/C value. The TGI value (in percent) or the T/C value (in percent) is an indication of antitumor effectiveness; T and C are the mean tumor volumes or tumor weights of the treated and control groups, respectively, on a given day.
TGI was calculated for each group using the formula: TGI (%)=[1−(Ti−T0)/(Vi−V0)]×100; Ti is the average tumor volume of a treatment group on a given day, T0 is the average tumor volume of the treatment group on the day of treatment start, Vi is the average tumor volume of the vehicle control group on the same day with Ti, and V0 is the average tumor volume of the vehicle group on the day of treatment start.
Relative T/C (%)=TRTV/CRTV×100 (RTV (%)=Vt/V0×100, Vt is the average tumor volume on a given day, V0 is the average tumor volume on the first day of treatment. TRTV is the RTV of a treatment group, and the CRTV is the RTV of the vehicle control group.)
The antitumor effectiveness of part 3 study was analyzed on PG-D13 when vehicle group reached 1791 mm^3.
Summary statistics, including mean and the standard error of the mean (SEM), were provided for the tumor volume of each group at each time point.
Statistical analysis of difference in tumor volume among the groups was conducted on the data obtained at the end of the study.
One-tailed T test was performed to compare tumor volumes between two groups. All data are analyzed using GraphPad Prism 6.0. p<0.05 is considered to be statistically significant.

MSTO-211H xenograft [2] = experiment: Mouse xenograft MSTO-211H tumors compared to prior art TEAD inhibitor; assay type: in vivo, BALB/c nude mice; conditions: 7 days of treatment, PO BID, 12.5 mg/kg Compound 5
Procedure: as §1
as §2, with “maintained in vitro” for “maintained”, “phase” for “phase with 95% cell survival or above”, “harvested” for “harvested,”
Each mouse was inoculated subcutaneously at the right flank with MSTO-211H tumor cells (10×10^6+50% matrigel/0.2 mL) for tumor development. Test subjects received vehicle (e.g., 0.5% CMC-Na+1% Tween80) beginning on day 7 after cell inoculation. […]
The major endpoint was to determine if the tumor growth could be delayed. Tumor size was measured twice a week in two dimensions using a caliper, and the volume was expressed in mm^3 using the formula: V=0.5 a×b^2 where a and b are the long and short diameters of the tumor, respectively. […]
Summary statistics, including mean and the standard error of the mean (SEM), were calculated for the tumor volume of each group at each time point. […]
One-tailed T test was performed to compare tumor volumes between two groups. All data were analyzed using GraphPad Prism 6.0. p<0.05 was considered to be statistically significant.

[3] = part 3, day 13, 12.5 mg/kg, BID

`Cn1nnc(-c2cc([C@]3(C)CCNC3=O)ccc2Nc2ccc(C(F)(F)F)cc2)n1` (stereo in doubt) [Compound 20, 3-methyl-3-(3-(2-methyl-2H-tetrazol-5-yl)-4-((4-(trifluoromethyl)phenyl)amino)phenyl) pyrrolidin-2-one] was tested. Which Tumor size (MSTO-211H xenograft [1]; part 3, day 0, 12.5 mg/kg, BID) did it give?
Its Tumor size is 963 ± 136 mm^3.

What about the Tumor size (MSTO-211H xenograft [1]; part 3, day 3, 12.5 mg/kg, BID) of the same compound?
The Tumor size was 740 ± 122 mm^3.

And the Tumor size (MSTO-211H xenograft [1]; part 3, day 6, 12.5 mg/kg, BID)?
The Tumor size was 591 ± 61 mm^3.

What about the Tumor size (MSTO-211H xenograft [1]; part 3, day 10, 12.5 mg/kg, BID) of the same compound?
The Tumor size was 444 ± 36 mm^3.

And the T/C (MSTO-211H xenograft [1]; [3])?
The T/C was 18.94%.

And the TGI (MSTO-211H xenograft [1]; [3])?
Its TGI is 177.56%.

And the Tumor size (MSTO-211H xenograft [1]; [3])?
The Tumor size was 339 ± 51 mm^3.

And the “Tumor Volume” value (MSTO-211H xenograft [1]; part 3, day 13, 12.5 mg/kg, BID (Table 18))?
The value was 339 ± 51 mm^3.

`Cn1cnc(-c2cc([C@@]3(C)CCNC3=O)ccc2Nc2ccc(C(F)(F)F)cc2)c1` (single isomer, unassigned) [Compound 5, 3-methyl-3-(3-(1-methyl-1H-imidazol-4-yl)-4-((4-(trifluoromethyl)phenyl)amino)phenyl)pyrrolidin-2-one] was tested. Which “change in tumor volume (in words)” value (MSTO-211H xenograft [2]) did it give?
Its value is “tumor reduction was observed”.
